The values that follow come from paper PMC5130005, “Indolin-2-one compounds targeting thioredoxin reductase as potential anticancer drug leads” (Oncotarget, 2016).

One experiment concerns HCT 116 cells. The experiment is described as follows: MTT cell viability assay, HCT 116 cells. The following applies: Homo sapiens, 72 h, mean ± SD of 3 experiments. The experiment is classed as cell-based. How it is done:
HCT 116 and MCF-7 cells were seeded in 96-well plates at a density of 1 × 10^4 cells/well and allowed to grow for 20-24 h before addition of test compounds. DMSO stocks of indolin-2-one compounds were serially diluted in medium each time an assay was performed. Cell viability was determined at the time of compound addition (time 0) and after 72 h of compound treatment by reduction of 3-(4,5-dimethylthiazol-2-yl)-2,5-diphenyltetrazolium bromide (MTT) by dehydrogenases in viable cells. MTT was added into each well (final concentration 400 μg/ml) and the plates were incubated for 4 h at 37°C. The supernatants were aspirated and upon solubilization of the formed formazan crystals in DMSO:glycine buffer pH 10.5 (ratio 4:1), absorbance at 550 nm was measured. 50% growth inhibition concentrations (GI50) and 50% lethal concentrations (LC50) values were calculated.
(In general: Tetrazolium assays rely on reduction of a dye to a coloured formazan, in cell work by metabolically active cells.)
`CCCCN1C(=O)/C(=C/C(C)=O)c2ccccc21` [Compound 4] had an LC50 (50% lethal concentration) of 9.7 ± 0.2 µM.
The same measure, in the same setting: then `CC(=O)/C=C1/C(=O)N(Cc2ccccc2)c2ccccc21` [Compound 5], with 9.4 ± 0.3 µM.
The compound `CN1C(=O)/C(=C/C(=O)c2ccccc2)c2ccccc21` [Compound 6] returned an LC50 (50% lethal concentration) of 27.2 ± 2.4 µM.

Still in this experiment, the particulars now being: Homo sapiens, 72 h, mean ± SD of 3 experiments, read-out: GI50 (50% growth inhibition concentration), HCT 116 cells.
As to `CC(=O)C=C1C(=O)N(C)c2ccccc21` [Compound 1, 1-methyl-3(2-oxopropylidene)indolin-2-one], the GI50 was 11.8 ± 3.3 µM.
For `CCCCN1C(=O)/C(=C/C(C)=O)c2ccccc21` [Compound 4], the GI50 was 4.5 ± 0.9 µM.
The same measure, in the same setting: for `CC(=O)/C=C1/C(=O)N(Cc2ccccc2)c2ccccc21` [Compound 5] the value was 3.2 ± 0.1 µM; for `CN1C(=O)/C(=C/C(=O)c2ccccc2)c2ccccc21` [Compound 6], 8.5 ± 0.8 µM.

Another experiment has as its target T1, recombinant rat TrxR (Rattus norvegicus, UniProt O89049).
T1 construct: made in house
T1 sequence (O89049 1-499): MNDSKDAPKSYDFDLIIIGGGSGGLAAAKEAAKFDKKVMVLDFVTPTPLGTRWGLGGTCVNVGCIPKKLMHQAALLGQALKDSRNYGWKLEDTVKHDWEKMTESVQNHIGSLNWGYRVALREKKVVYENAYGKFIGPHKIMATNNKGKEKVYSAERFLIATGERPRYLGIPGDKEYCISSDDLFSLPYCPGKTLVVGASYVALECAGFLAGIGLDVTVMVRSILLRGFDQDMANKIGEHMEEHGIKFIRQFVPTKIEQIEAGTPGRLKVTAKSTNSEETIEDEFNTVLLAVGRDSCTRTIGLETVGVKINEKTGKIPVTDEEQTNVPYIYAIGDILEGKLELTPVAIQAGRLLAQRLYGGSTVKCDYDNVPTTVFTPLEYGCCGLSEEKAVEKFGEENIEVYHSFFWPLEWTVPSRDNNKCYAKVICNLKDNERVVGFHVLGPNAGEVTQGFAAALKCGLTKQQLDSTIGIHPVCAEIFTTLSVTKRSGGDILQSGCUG
In words: in vitro TrxR DTNB reduction assay. Type of experiment: biochemical. The following applies: 30 min incubation, 100 nM recombinant rat TrxR, 200 μM NADPH, read-out: TrxR inhibition IC50. How it is done:
In a volume of 100 μl of 50 mM Tris-HCl pH 7.5, 2 mM EDTA buffer (TE buffer), compounds of concentrations 1-100 μM were incubated with 100 nM recombinant rat TrxR and 200 μM NADPH at room temperature in 96-well plates for 30 and 60 min. The incubation was terminated by addition of 100 μl per well of 10 mM DTNB, 200 μM NADPH solution in TE buffer and immediately followed by measurement of linear increase of absorbance at 412 nm for the initial 2 min using the VersaMax microplate reader (Molecular Devices). The results were expressed as % of TrxR activity of drug-treated sample over that of DMSO control. The 50% inhibition concentration (IC50) values were calculated.
On to `CC(=O)C=C1C(=O)N(C)c2ccccc21` [Compound 1, 1-methyl-3(2-oxopropylidene)indolin-2-one], for which the half-maximal inhibitory concentration (IC50) is 22.1 ± 1.8 µM.
Still for that read-out and setting: for `CCCCN1C(=O)/C(=C/C(C)=O)c2ccccc21` [Compound 4] the value was 8.6 ± 0.9 µM; for `CC(=O)/C=C1/C(=O)N(Cc2ccccc2)c2ccccc21` [Compound 5], 6.2 ± 1.7 µM.
Same read-out and setting: for `CN1C(=O)/C(=C/C(=O)c2ccccc2)c2ccccc21` [Compound 6] the value was 14.7 ± 3.2 µM.

Another experiment deals with T2, yeast GR (Saccharomyces cerevisiae, UniProt P41921).
T2 construct: purchased Sigma
T2 sequence (P41921 17-483 limits assumed): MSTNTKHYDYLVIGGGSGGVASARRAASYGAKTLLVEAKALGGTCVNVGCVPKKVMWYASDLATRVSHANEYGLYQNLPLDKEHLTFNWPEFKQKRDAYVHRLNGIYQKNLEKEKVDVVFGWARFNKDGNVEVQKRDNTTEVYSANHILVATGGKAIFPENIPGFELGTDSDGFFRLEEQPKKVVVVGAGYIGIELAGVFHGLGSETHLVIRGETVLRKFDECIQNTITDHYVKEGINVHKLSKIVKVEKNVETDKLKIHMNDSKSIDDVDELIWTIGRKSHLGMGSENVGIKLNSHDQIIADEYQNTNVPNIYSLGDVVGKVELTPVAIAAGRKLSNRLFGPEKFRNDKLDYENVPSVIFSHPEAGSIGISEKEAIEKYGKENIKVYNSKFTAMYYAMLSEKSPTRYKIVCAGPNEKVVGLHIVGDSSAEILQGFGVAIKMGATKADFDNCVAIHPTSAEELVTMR
The experiment is described as follows: in vitro yeast GR activity (glutathione reduction assay). The experiment is classed as biochemical. The settings on record: 60 min incubation, 1-100 μM, 20 nM yeast GR, 200 μM NADPH. The method, then:
To determine in vitro yeast GR activity, compounds of concentrations 1-100 μM were incubated with 20 nM yeast GR and 200 μM NADPH in a volume of 100 μl phosphate buffer (0.1 M sodium phosphate, 2 mM EDTA pH 7.5) for 1 h at room temperature. At the end of the incubation, 100 μl of […] GSSG (final concentration 500 μM) and 200 μM NADPH in phosphate buffer was added to each well. NADPH consumption was monitored by measurement of absorbance at 340 nm using the VersaMax microplate reader. The results were calculated based on decrease in absorbance in the initial 90 s and expressed as a percentage of the enzyme activity of the DMSO-treated sample. For determination of cellular GR activity, 25 μg of cell lysate was mixed with a solution of GSSG and NADPH in phosphate buffer to a final volume of 200 μl (final GSSG and NADPH concentrations 1 mM and 200 μM respectively). The enzyme activity was determined by measuring the decrease in absorbance at 340 nm for 10 min at 37°C and expressed as a percentage of the enzyme activity of that of the DMSO-treated sample.
In the case of `CC(=O)C=C1C(=O)N(C)c2ccccc21` [Compound 1, 1-methyl-3(2-oxopropylidene)indolin-2-one], the “yeast GR activity” value is listed as “uninhibited”.
Take `CCCCN1C(=O)/C(=C/C(C)=O)c2ccccc21` [Compound 4]: the “yeast GR activity” value is reported as “uninhibited”.
On the same count and under the same terms, then `CC(=O)/C=C1/C(=O)N(Cc2ccccc2)c2ccccc21` [Compound 5], with “uninhibited”; and `CN1C(=O)/C(=C/C(=O)c2ccccc2)c2ccccc21` [Compound 6], with “uninhibited”.

The term IC50 denotes the concentration that inhibits the measured activity by half.
